Legend:
[1] = tested on: ascaris-immunized mouse splenocytes; test: Ascaris-immunized mouse splenocytes (in vivo dosing): DNP-ascaris specific growth response, MTT; parameters: species or system Balb/c mice; conditions: 100 mg/kg/day orally 5 times weekly for 3 weeks; splenocytes cultured with 12.5 µg/ml DNP-ascaris 3 days; absorbance of non-sensitized splenocytes taken as 1 (sensitized 0.5% MC control 5.52)
Method: Method: Female Balb/c mice at 9 weeks of age (purchased from Shizuoka Laboratory Animal Center, Japan) were intraperitoneally administered 40 µg/mouse DNP-ascaris (2,4-dinitrophenylated ascaris extract, produced by LSL) together with Freund's complete adjuvant (FCA, produced by Difco, USA), 3 weeks later, splenocytes were collected. The compound 1((±)-7-(3,5,6-trimethyl-1,4-benzoquino-2-yl)-7-phenylheptonoic acid) was suspended in 0.5% methyl cellulose (MC) and orally administered at 100 mg/kg/day 5 times weekly for 3 weeks, starting at the day before DNP-ascaris administration. After final oral administration, the splenocyte mixture was prepared from the spleens of 5 animals per group, and suspended in RPMI-1640 medium (produced by Bio Whittaker, Inc., USA) containing inactivated fetal bovine serum (10% v/v, produced by Difco, USA), 2-mercaptoethanol (50 µM), L-glutamine (2 mM) and gentamicin (20 µg/ml) to yield a single cell suspension. After cell number was set to 3.3 × 10^6 cells/ml, DNP-ascaris was added to 96-well round-bottomed plates (produced by Sumitomo Bakelite Co., Ltd., Japan) at 12.5 µg/ml, and cultured at 37°C for 3 days in an incubator containing 5% carbon dioxide. […] To this culture, a 10% SDS-0.01N HCl mixture was added at 50 µl per well, followed by incubation in the carbon dioxide incubator for 18 hours, after which absorbance at 620 nm was determined.

IL-5 [2] = test: Ovalbumin-immunized mouse splenocytes (oral dosing): IL-5 production, ELISA; assay type: in vivo, Balb/c mice; conditions: 100 mg/kg orally for two weeks, 10 ug/ml OVA 3 days
Method: (§1) Method: Seven-week-old made Balb/c mice (Charles River Japan) were used. Mice were immunized i.p. with 1 ug ovalbumin (OVA, albumin chicken egg grade III; Sigma, USA) in aluminium hydroxide hydrate gel suspension (Alum, ISL Co., Ltd., Japan) twice at an unterval of a week. Two weeks after first immunization, spleens were asceptically removed, and single cell suspension was prepared in RPMI-1640 (Bio Whittaker, Inc., USA) containing 10% heat-inactivated fetal calf serum (FCS, Bio Whittaker, Inc., USA), 50 uM 2-mercaptoethanol, 2 mM L-glutamine, and 20 ug/ml gentamicin. Compound 1((+)-7-(3,5,6-trimethyl-1,4-benzoquino-2-yl)-7-phenylheptonoic acid) at 100 mg/kg suspended with 0.5% methyl cellulose (MC) was given orally in a volume of 10 ml/kg for two weeks from a day before first immunization. Splenocytes (3.3 × 10^6 cells) were cultured with 10 ug/ml OVA in 125-ml wells of a 96-well round-bottomed tissue culture plate (Sumitomo Bakelite Co., Ltd., Japan) and were kept in a humidified incubation at 37°C in 5% CO2 in air for three days.
(§2) To study the effect of the drug on the cytokine production, after centrifuged at 200×g for 5 minutes, the supernatant of the culture well was removed and its IL-4 and IL-5 contents were measured by ELISA kits (Endogen, USA).

[3] = tested on: ovalbumin-immunized mouse splenocytes; test: Ovalbumin-immunized mouse splenocytes (oral dosing): OVA-specific growth response, MTT; assay type: in vivo, Balb/c mice; conditions: 100 mg/kg orally for two weeks; splenocytes cultured with 10 ug/ml OVA 3 days; non-sensitized taken as 1 (sensitized 0.5% MC control 2.07)
Method: as §1, with “Splenocytes (3.3 × 10^6 cells) were cultured with 10 ug/ml OVA in 125-ml wells of a 96-well round-bottomed tissue culture plate (Sumitomo Bakelite Co., Ltd., Japan) and were kept in a humidified incubation at 37°C in 5% CO2 in air for three days.” left out
To study the effect of drug on the proliferation, 50 ul of 3 mg/ml 3(4,5-dimethylthiazol-2-yl)-2,5-diphenyltetrazolium bromide (MTT, Dojinedo Labs., Japan) resolved in phosphate buffered saline (PBS) was added into each well for final 6 hours of culture. The culture was completed by added 50 ul of 10% SDS resolved into 0.1 N HCl solution and after kept in 37°C for 18 hours, the absorbance at 620 nm was measured.

IL-4 [4] = test: Ascaris-immunized mouse splenocytes (in vitro): IL-4 production, ELISA; assay type: cell-based, Balb/c mice; conditions: Splenocyte, 72 h, 25 µM drug, 40 µg/ml DNP-ascaris, 3 days, production in absence of compound taken as 100%, read-out: Suppression Rate (%) IL-4
Method: (§3) Method: Female Balb/c mice at 9 weeks of age (purchased from Shizuoka Laboratory Animal Center, Japan) were intraperitoneally administered 40 µg/mouse DNP-ascaris (2,4-dinitrophenylated ascaris extract, produced by LSL), together with Freund's complete adjuvant (FCA, produced by Difco, USA), and, 3 weeks later, splenocytes were collected. Splenocyte mixture was prepared from the spleens and suspended in RPMI-1640 medium (produced by Bio Whittaker, Inc., USA) containing inactivated fetal bovine serum (10% v/v, produced by Difco, USA), 2-mercaptoethanol (50 µM), L-glutamine (2 mM) and gentamicin (20 µg/ml) to yield a single cell suspension. After cell number was set to 3.3 × 10^6 cells/ml, DNP-ascaris was added to 96-well round-bottomed plates (produced by Sumitomo Bakelite Co., Ltd., Japan) containing a 25 µM test drug, at 12.5 µg/ml, and cultured at 37°C for 3 days in a 5% carbon dioxide incubator. After completion of cultivation, 3-(4,5-dimethylthiazol-2-yl)-2,5-diphenyl-tetrazolium bromide (MTT, produced by Dojin Kenkyujo, Japan) in PBS buffer was added to each well at 0.86 mg/ml, followed by cultivation in the carbon dioxide incubator for 6 hours. To this culture, a 10% SDS-0.01 N HCl mixture was added at 50 µl per well, followed by incubation in the carbon dioxide incubator for 18 hours, after which absorbance at 620 nm was determined.
Next, DNP-ascaris was added to a 1.2 × 10^6 cells/ml splenocyte suspension in each 96-well round-bottomed plate containing a drug (25 µM), at 40 µg/ml, and cultured at 37°C for 3 days in the 5% carbon dioxide incubator. After this culture was centrifuged at 200 x g for 5 minutes, the culture supernatant was collected, and, the amount of IL-4 produced in each supernatant was determined by ELISA [mouse IL-4 ELISA kit (produced by Endogen, USA)].

IL-4 [5] = test: Ovalbumin-immunized mouse splenocytes (oral dosing): IL-4 production, ELISA; assay type: in vivo, Balb/c mice; conditions: 100 mg/kg orally for two weeks, 10 ug/ml OVA 3 days
Method: as §1, §2

[6] = tested on: ascaris-immunized mouse splenocytes; test: Ascaris-immunized mouse splenocytes (in vitro): DNP-ascaris stimulated growth, MTT; assay type: cell-based, Balb/c mice; conditions: Splenocyte, 72 h, 25 µM test drug, 12.5 µg/ml DNP-ascaris, 3 days, absorbance in absence of compound taken as 100%, read-out: Suppression Rate (%) MTT
Method: as §3

IL-5 [7] = test: Ascaris-immunized mouse splenocytes (in vivo dosing): IL-5 production, ELISA; parameters: species or system Balb/c mice; conditions: 100 mg/kg/day orally 5 times weekly for 3 weeks; splenocytes cultured with 40 µg/ml DNP-ascaris 3 days; non-sensitized taken as 1 (sensitized 0.5% MC control 43.3)
Method: (§4) Method: Female Balb/c mice at 9 weeks of age (purchased from Shizuoka Laboratory Animal Center, Japan) were intraperitoneally administered 40 µg/mouse DNP-ascaris (2,4-dinitrophenylated ascaris extract, produced by LSL) together with Freund's complete adjuvant (FCA, produced by Difco, USA), 3 weeks later, splenocytes were collected. The compound 1((±)-7-(3,5,6-trimethyl-1,4-benzoquino-2-yl)-7-phenylheptonoic acid) was suspended in 0.5% methyl cellulose (MC) and orally administered at 100 mg/kg/day 5 times weekly for 3 weeks, starting at the day before DNP-ascaris administration. […] To this culture, a 10% SDS-0.01N HCl mixture was added at 50 µl per well, followed by incubation in the carbon dioxide incubator for 18 hours, after which absorbance at 620 nm was determined.
(§5) Next, DNP-ascaris was added to a 1.2 × 10^6 cells/ml splenocyte suspension in each 96-well round-bottomed plate at 40 µg/ml and cultured at 37°C for 3 days in the 5% carbon dioxide incubator. After this culture was centrifuged at 200 x g for 5 minutes, the culture supernatant was collected, and, the amounts of IL-4 and IL-5 produced in each supernatant were determined by ELISA [mouse IL-4 ELISA kit (produced by Endogen, USA); mouse IL-5 ELISA kit (produced by Endogen, USA)].

IL-5 mRNA = IL-5 mRNA expression in ovalbumin-immunized mouse splenocytes (oral dosing), RT-PCR; assay type: in vivo, Balb/c mice; conditions: 10 and 100 mg/kg orally for two weeks; splenocytes cultured with 10 ug/ml OVA for 4, 7 and 24 hours; Fig. 1
Method: Method: Eight-week-old male Balb/c mice (Charles River Japan) immunized i.p. with 1 ug OVA absorbed to 1 mg Alum twice at an unterval of a week. Two weeks after the first immunization, splenocytes were prepared in RPMI-1640 (BioWhittaker, Inc., USA) containing 10% heat-inactivated fetal bovine serum (FBS, Bio Whittaker, Inc., USA), 50 uM 2-mercaptoethanol, 2 mM L-glutamine, and 20 ug/ml gentamicin. Compound 1 ((±)-7-(3,5,6-trimethyl-1,4-benzoquino-2-yl)-7-phenylheptonoic acid) at 10 and 100 mg/kg suspended with 0.5% methyl cellulose (MC) was given orally in a volume of 20 ml/kg for two weeks from a day before first immunization. […] Following the heat inactivation at 95°C for 10 min, one fifth of the cDNA mixtures was amplified by Ex Taq DNA polymerase (Takara Shuzoh, Japan) with the appropriate oligonucleatide primers (mouse IL-5 and β-actin amplimer set (Clontech). A DNA Thermal Cycler (Perkin Elmer) was used for 50 DNA amplification cycles, with a denaturation step at 95°C for 1 min, an annealing step at 55°C for 2 min, and an extension step at 72°C for 3 min. Twenty percent of the amplified DNA was analyzed by electrophoresis in a 2% GTG agarose gel. After staining with ethidium bromide, the DNA band was photographed under UV light. The data of the negatives were analyzed by NIH Image 1.55 software. […]

IL-4 [8] = test: Ascaris-immunized mouse splenocytes (in vivo dosing): IL-4 production, ELISA; parameters: species or system Balb/c mice; conditions: 100 mg/kg/day orally 5 times weekly for 3 weeks; splenocytes cultured with 40 µg/ml DNP-ascaris 3 days; non-sensitized taken as 1 (sensitized 0.5% MC control 15.8)
Method: as §4, §5

Row | Structure (SMILES) | inhibition at 25 µM (IL-4 [4]) [%] | inhibition at 25 µM [6] [%] | further results
1 | CC1=C(C)C(=O)C(C(CCCCCC(=O)O)c2ccccc2)=C(C)C1=O (racemic) [Compound 1, (±)-7-(3,5,6-trimethyl-1,4-benzoquinon-2-yl)-7-phenylheptanoic acid] | 15 | 44 | DNP-ascaris Specific Growth Response, Relative Value [1]: 3.37; Cytokine Production, Relative Value Exp. 1 IL-5 (IL-5 [2]; Exp. 1, non-sensitized taken as 1 (sensitized 0.5% MC control 7.3)): 4.8; Cytokine Production, Relative Value Exp. 2 IL-5 (IL-5 [2]; Exp. 2, non-sensitized taken as 1 (sensitized 0.5% MC control 31.8)): 21.7; OVA-Specific Growth Response, Relative Value [3]: 1.75; Cytokine Production, Relative Value Exp. 1 IL-4 (IL-4 [5]; Exp. 1, non-sensitized taken as 1 (sensitized 0.5% MC control 24.7)): 7.7; Cytokine Production, Relative Value Exp. 2 IL-4 (IL-4 [5]; Exp. 2, non-sensitized taken as 1 (sensitized 0.5% MC control 14.2)): 6.94; Cytokine Production, Relative Value IL-5 (IL-5 [7]): 13.6; antigen-stimulated IL-5 mRNA expression (ratio to β-actin PCR product) (IL-5 mRNA): inhibits antigen-stimulated IL-5 mRNA expression; Cytokine Production, Relative Value IL-4 (IL-4 [8]): 9.21
2 | COC1=C(OC)C(=O)C(C(CCCCCC(=O)O)c2ccc(C(C)C)cc2)=C(C)C1=O (stereo not drawn) [Compound 6] | 57 | 33 | –
3 | CC1=C(C)C(=O)C(C(CCCCCCCCC(=O)O)c2ccccc2)=C(C)C1=O (stereo not drawn) [Compound 4] | 87 | 60 | –
4 | COC1=C(OC)C(=O)C(C(CCCCCO)c2ccc(OC)cc2)=C(C)C1=O (stereo not drawn) [Compound 5] | 80 | 46 | –
5 | CC1=C(C)C(=O)C(C(CCC(=O)O)c2ccccc2)=C(C)C1=O (stereo not drawn) [Compound 3] | 38 | 36 | –
6 | CC1=C(C)C(=O)C(C(CCCCCCC(=O)O)c2ccccc2)=C(C)C1=O (stereo not drawn) [Compound 2] | 38 | 40 | –

— EP0719552A2, “Pharmaceutical composition comprising a quinone derivative or a hydroquinone thereof for treating dermatitis” (Takeda Chemical Industries, Ltd., priority 1994, dated 1996)
